Results from US6706740B2, “Fungicidal heterocyclic aromatic amides and their compositions, methods of use and preparation” (Dow AgroSciences LLC, priority 1999, dated 2004).
Like-named read-outs stand apart in the source and are kept apart here.

Assays:
Ustilago maydis (USTIMA) = assay: microbe, parasite or virus in culture; assay type: cell-based; conditions: Mycosarcoma maydis, read-out: USTIMA in vitro Growth Inhibition
[1] = test system: Magnaporthe grisea (Pyricularia oryzae—PYRIOR); assay: microbe, parasite or virus in culture; assay type: cell-based; conditions: Pyricularia oryzae, read-out: PYRIOR in vitro Growth Inhibition
[2] = test system: Leptosphaeria nodorum—LEPTNO; assay: Glume Blotch of Wheat, in vivo whole plant, 24 Hour Protectant; conditions: for pest or weed control at 100 ppm: Leptosphaeria, read-out: LEPTNO in vivo 1 Day Protectant
Erysiphe graminis—ERYSGT = assay: Powdery Mildew of Wheat, in vivo whole plant, 24 Hour Protectant; conditions: Erysiphe, read-out: ERYSGT in vivo 1 Day Protectant
[3] = test system: Puccinia recondita—PUCCRT; assay: Brown Rust of Wheat, in vivo whole plant, 24 Hour Protectant; conditions: for pest or weed control at 100 ppm: Puccinia, read-out: PUCCRT in vivo 1 Day Protectant
[4] = test system: Stagonospora nodorum (Leptosphaeria nodorum—LEPTNO); assay: In vitro fungal growth inhibition, Stagonospora nodorum (LEPTNO); assay type: cell-based; conditions: Leptosphaeria, read-out: LEPTNO in vitro Growth Inhibition
Septoria tritici—SEPTTR = assay: Leaf Blotch of Wheat, in vivo whole plant, 24 Hour Protectant; conditions: for pest or weed control at 100 ppm: Zymoseptoria tritici, 24 h, read-out: SEPTTR in vivo 1 Day Protectant
[5] = test system: Rhizoctonia solani (RHIZSO); assay: microbe, parasite or virus in culture; assay type: cell-based; conditions: Rhizoctonia solani, read-out: RHIZSO in vitro Growth Inhibition
[6] = test system: Phytophthora infestans—PHYTIN; assay: whole plant or invertebrate; assay type: in vivo; conditions: Phytophthora, in Solanum lycopersicum, 24 h, read-out: PHYTIN in vivo 1 Day Protectant
[7] = test system: Mycosphaerella graminicola (Septoria tritici—SEPTTR); assay: In vitro fungal growth inhibition, Mycosphaerella graminicola (SEPTTR); assay type: cell-based; conditions: Zymoseptoria tritici, read-out: SEPTTR in vitro Growth Inhibition
[8] = test system: Phytophthora infestans (PHYTIN); assay: microbe, parasite or virus in culture; assay type: cell-based; conditions: Phytophthora infestans, read-out: PHYTIN in vitro Growth Inhibition
[9] = 100 ppm spray, wheat, 24 hour protectant, % control of fungal infection vs untreated plants
[10] = 100 ppm spray, wheat, 24 hour protectant, control of fungal infection vs untreated plants
[11] = 100 ppm spray, 24 hour protectant, wheat, control of fungal infection vs untreated plants
[12] = wheat plants sprayed at 100 ppm, inoculated after 24 hours, control of fungal infection vs untreated plants

Structure (SMILES)	inhibition at 25 ppm (Ustilago maydis (USTIMA))	inhibition at 25 ppm [1]	inhibition at 25 ppm ([4]; 25 ppm in growth medium)	inhibition at 25 ppm [5]	pest or weed control at 100 ppm [6]	inhibition at 25 ppm ([7]; 25 ppm in growth medium)	inhibition at 25 ppm [8]	pest or weed control at 100 ppm (Erysiphe graminis—ERYSGT; [10])	pest or weed control at 100 ppm [3, 10]	pest or weed control at 100 ppm (Septoria tritici—SEPTTR; [10])	also measured
COCCC(=O)Oc1c(OC)ccnc1C(=O)Nc1ccc(C(=O)Oc2cccc(C(F)(F)F)c2)cc1 [Compound 716]	< 80%	< 80%	< 80%	< 80%	< 25%	< 80%	< 80%				pest or weed control at 100 ppm [2, 9]: 25 to 74%; pest or weed control at 100 ppm (Erysiphe graminis—ERYSGT; [9]): < 25%; pest or weed control at 100 ppm [3, 9]: 25 to 74%; pest or weed control at 100 ppm (Septoria tritici—SEPTTR; [9]): 25 to 74%
C/C=C/C(=O)Oc1c(OC)ccnc1C(=O)N[C@H]1COC(=O)[C@H](Cc2ccccc2)[C@@H](OC(=O)C(C)C)[C@H](C)OC1=O [Compound 600]	< 80%	> 80%	> 80%	< 80%	< 25%	< 80%	< 80%				LEPTNO in vivo 1 Day Protectant [2, 9]: + +; pest or weed control at 100 ppm (Erysiphe graminis—ERYSGT; [9]): < 25%; PUCCRT in vivo 1 Day Protectant [3, 9]: + +; SEPTTR in vivo 1 Day Protectant (Septoria tritici—SEPTTR; [9]): + +
COc1ccnc(C(=O)N[C@H]2C[C@@H](O[Si](C)(C)C(C)(C)C)O[C@@H](C)[C@@H]2OCc2ccccc2)c1O [Compound 328]	< 80%	< 80%		< 80%	< 25%		> 80%	< 25%	< 25%	25 to 74%	pest or weed control at 100 ppm [2, 10]: 25 to 74%; inhibition at 25 ppm [4]: < 80%; inhibition at 25 ppm [7]: < 80%
COc1ccnc(C(=O)NC2C3(C)CCC(C3)C2(C)C)c1O (stereo not shown) [Compound 288]	< 80%	< 80%	< 80%	> 80%	< 25%	< 80%	< 80%				pest or weed control at 100 ppm [2, 11]: 25 to 74%; pest or weed control at 100 ppm (Erysiphe graminis—ERYSGT; [11]): < 25%; pest or weed control at 100 ppm [3, 11]: < 25%; pest or weed control at 100 ppm (Septoria tritici—SEPTTR; [11]): 25 to 74%
C[C@H](NC(=O)c1ncccc1O)c1cccc2ccccc12 [Compound 232]	< 80%	> 80%	< 80%	< 80%	< 25%	> 80%	< 80%				pest or weed control at 100 ppm [2, 11]: < 25%; pest or weed control at 100 ppm (Erysiphe graminis—ERYSGT; [11]): 25 to 74%; pest or weed control at 100 ppm [3, 11]: < 25%; pest or weed control at 100 ppm (Septoria tritici—SEPTTR; [11]): < 25%
COc1ccnc(C(=O)NC2CC(C)(C)CC(C)(C#N)C2)c1OC(C)=O (stereo not shown) [Compound 574]	< 80%	< 80%		< 80%	< 25%		< 80%				pest or weed control at 100 ppm [2, 12]: 25 to 74%; pest or weed control at 100 ppm (Erysiphe graminis—ERYSGT; [12]): < 25%; pest or weed control at 100 ppm [3, 12]: < 25%; inhibition at 25 ppm ([4]; 25 ppm in the growth medium): < 80%; pest or weed control at 100 ppm (Septoria tritici—SEPTTR; [12]): 25 to 74%; inhibition at 25 ppm ([7]; 25 ppm in the growth medium): < 80%
COc1ccnc(C(=O)N[C@H]2COC(=O)[C@H](Cc3ccccc3)[C@@H](OC(=O)C3CC3)[C@H](C)OC2=O)c1O [Compound 387]	> 80%	> 80%	> 80%	> 80%	< 25%	> 80%	< 80%	25 to 74%	25 to 74%	25 to 74%	LEPTNO in vivo 1 Day Protectant [2, 10]: + +
COc1ccnc(C(=O)Nc2ccc(Oc3ccccc3C)cc2)c1O [Compound 415]	< 80%	< 80%	< 80%	< 80%	< 25%	> 80%	< 80%	25 to 74%	25 to 74%	< 25%	pest or weed control at 100 ppm [2, 10]: < 25%
